The experiment has as its target Neuronal acetylcholine receptor; alpha9/alpha10 (Homo sapiens, UniProt Q9GZZ6+Q9UGM1). Description: Inhibition of human alpha9/alpha10 nACHR (1:1) expressed in Xenopus laevis oocyte assessed as inhibition of ACh induced channel current measured for 2 to 5 days at -80 mV holding potential by two electrode voltage clamp method.

A word on the IC50: it is the midpoint of a concentration-inhibition curve.

Peptide text beside a SMILES is read from it.

Sequence of Neuronal acetylcholine receptor; alpha9/alpha10 (Q9UGM1 whole entry): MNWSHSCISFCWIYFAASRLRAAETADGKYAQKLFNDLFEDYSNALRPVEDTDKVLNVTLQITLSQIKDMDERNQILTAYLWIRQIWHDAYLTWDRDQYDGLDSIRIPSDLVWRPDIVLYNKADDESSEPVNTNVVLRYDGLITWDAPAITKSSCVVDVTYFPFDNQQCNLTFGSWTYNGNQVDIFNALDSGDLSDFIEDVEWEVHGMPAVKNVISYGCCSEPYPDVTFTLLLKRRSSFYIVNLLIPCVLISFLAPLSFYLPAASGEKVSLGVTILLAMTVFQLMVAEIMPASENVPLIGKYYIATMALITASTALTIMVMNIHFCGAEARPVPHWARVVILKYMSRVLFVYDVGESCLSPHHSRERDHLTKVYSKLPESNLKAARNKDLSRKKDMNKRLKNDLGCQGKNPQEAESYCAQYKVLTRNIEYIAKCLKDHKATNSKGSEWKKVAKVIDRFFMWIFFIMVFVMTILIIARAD
Sequence of Neuronal acetylcholine receptor; alpha9/alpha10 (Q9GZZ6 whole entry): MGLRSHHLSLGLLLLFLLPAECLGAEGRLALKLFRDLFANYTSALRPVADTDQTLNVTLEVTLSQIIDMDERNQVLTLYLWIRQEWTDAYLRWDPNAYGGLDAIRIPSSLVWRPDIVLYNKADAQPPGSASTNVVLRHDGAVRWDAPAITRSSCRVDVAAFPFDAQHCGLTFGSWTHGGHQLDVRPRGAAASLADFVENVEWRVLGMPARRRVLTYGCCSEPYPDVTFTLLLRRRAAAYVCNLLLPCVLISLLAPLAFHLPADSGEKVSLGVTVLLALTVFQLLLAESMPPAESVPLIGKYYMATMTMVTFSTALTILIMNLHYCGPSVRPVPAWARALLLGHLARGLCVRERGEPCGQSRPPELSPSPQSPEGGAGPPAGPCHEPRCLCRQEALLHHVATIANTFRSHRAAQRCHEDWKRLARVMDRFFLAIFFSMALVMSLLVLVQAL

Turning to `CC(C)[C@@H]1NC(=O)[C@H](CO)NC(=O)[C@@H]2CSSC[C@H](NC(=O)CN)C(=O)N[C@@H](CSSC[C@@H](C(N)=O)NC(=O)[C@H](CCCCN)NC(=O)[C@H](CC(N)=O)NC(=O)[C@@H]3CCCN3C(=O)[C@H](Cc3ncc[nH]3)NC(=O)[C@H](CC(=O)O)NC1=O)C(=O)N[C@@H](CO)C(=O)N[C@@H](Cc1ncc[nH]1)C(=O)N1CCC[C@H]1C(=O)N[C@@H](C)C(=O)N2` (HELM PEPTIDE1{G.C.C.S.[O=C([C@H](Cc1ncc[nH]1)N[*:1])[*:2]].P.A.C.S.V.D.[O=C([C@H](Cc1ncc[nH]1)N[*:1])[*:2]].P.N.K.C.[am]}$PEPTIDE1,PEPTIDE1,2:R3-8:R3|PEPTIDE1,PEPTIDE1,3:R3-16:R3$$$V2.0), the IC50 stood at 22.2 µM.
